Results from PMC12700902 (Communications Biology, 2025).
“And” between values parts separate entries of the source, which are not always exact repeats. Identical values can stand only once. “Also recorded” adds a separate entry of the source. Like-named read-outs stand apart in the source and are kept apart here.

What was measured:
A. mellifera α5 nAChR = A. mellifera α5 nAChR (Apis mellifera, UniProt A0A0H3V1C5); test: Two-electrode voltage clamp of X. laevis oocytes expressing the A. mellifera α5 nAChR (wild-type); format: cell-based; conditions: for normalised current response (Fig. 1c source data): single oocytes, normalised to maximal concentration of Fig. 1b
Chain of A. mellifera α5 nAChR (A0A0H3V1C5 entry or part of it): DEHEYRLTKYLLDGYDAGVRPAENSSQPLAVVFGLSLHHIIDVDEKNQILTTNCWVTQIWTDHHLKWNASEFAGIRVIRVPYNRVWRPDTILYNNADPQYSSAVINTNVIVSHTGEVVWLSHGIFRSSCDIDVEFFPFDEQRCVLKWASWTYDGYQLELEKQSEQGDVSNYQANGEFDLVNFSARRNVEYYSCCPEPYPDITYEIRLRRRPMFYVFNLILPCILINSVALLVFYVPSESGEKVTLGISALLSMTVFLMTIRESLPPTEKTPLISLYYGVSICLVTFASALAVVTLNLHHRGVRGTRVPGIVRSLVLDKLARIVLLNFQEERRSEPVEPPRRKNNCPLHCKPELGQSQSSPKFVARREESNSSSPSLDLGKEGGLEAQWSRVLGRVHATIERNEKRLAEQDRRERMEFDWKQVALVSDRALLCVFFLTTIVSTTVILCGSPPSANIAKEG
Experimental: (§1) Oocytes were mainly obtained either from Ecocyte (https://ecocyte-us.com/products/xenopus-oocyte-delivery-service/), which arrived ready for injection, or from the European Xenopus Resource Centre (https://xenopusresource.org/resources) as ovarian sections. In the latter case, oocytes were either prepared for injection by incubation in collagenase type I in OR2 (sodium chloride 82 mM, potassium chloride 2 mM, magnesium chloride 2 mM, HEPES 5 mM, pH 7.6) at 2 mg/ml for 45 min at room temperature and shaking at 150 RPM[19] or by manual defolliculation followed by incubation with 0.5 mg/ml collagenase type I in OR2 for 6 min at room temperature at 150 RPM. Oocyte nuclei were injected with 23 nl of A. mellifera α5 DNA cloned into the pCI vector[19] […] Mutant A. mellifera α5 subunits (in pCI) were injected at 100–500 ng/µl. […] Oocytes were clamped at −80 mV and responses were recorded on a flatbed chart recorder (Kipp and Zonen BD-11E, Delft, The Netherlands). The oocytes were continuously perfused with SOS at a flow rate of 10 ml/min. Oocytes were selected for experiments if responses were consistent for two or more applications of the normalising concentration of agonist. Test chemicals were applied at 3 min intervals. Agonist concentration response curves were created by measuring the response of the oocytes to different agonist concentrations in SOS, responses were normalised to the maximal response induced by the agonist. Amitraz (10 mM) was dissolved in DMSO and then at a working concentration in 1:1000 ratio in SOS. All other chemicals were either dissolved in distilled water to make frozen stocks (100 mM) or dissolved directly in SOS (10 mM) on the day of use. […] Oocytes were clamped at voltages ranging between −100 and +40 mV to determine the current voltage relationship.
Concentration-response data were fitted with the Hill equation: y=Imax/1/EC50/agonist^nH where y is the normalised current amplitude, Imax is the maximal response Imax/Iagonistmax , EC50 is the agonist concentration at half-maximal efficacy, [agonist] is the agonist concentration and nH is the Hill coefficient, to estimate the EC50 and Hill coefficient. Curve fitting was carried out using GraphPad software version 10 (GraphPad Software, La Jolla, CA, United States). […] The peak of the current responses was normalised to the agonist concentration that gave a maximal response. Error bars on graphs show standard error, ‘n’ indicates the number of experiments and ‘batch’ indicates the number of frogs these oocytes came from. Values are shown as mean ± 95% confidence limits.

[1] = system: α5 subunit of D. melanogaster; conditions: homomeric receptor; cited from earlier work
[2] = system: X. laevis oocytes injected with water only; test: Oocytes injected with water only; format: cell-based, Xenopus laevis
Experimental: as §1

[3] = read-out: Maximum response relative to 5 mM ACh (%)
[4] = 1 mM, applied 3 min after 5 mM ACh
[5] = Table 1 series, oocytes clamped at −80 mV, mean (95% confidence limits), read-out: EC50
[6] = Table 1 series, mean (95% confidence limits)

Q: With `CC(=O)OCC[N+](C)(C)C` [Acetylcholine, acetylcholine] as the molecule, how does the Hill coefficient (A. mellifera α5 nAChR) read?
A: Its Hill coefficient is 2.304 (1.886–2.721).

Q: What about the “effect of absence of Na+ on agonist response” value (A. mellifera α5 nAChR) of the same molecule?
A: The value was “eliminated the response”.

Q: What about the response on co-application (A. mellifera α5 nAChR) of the same molecule?
A: Its response on co-application is “synergistic agonism”.

Q: And the “response when applied alone” value (A. mellifera α5 nAChR)?
A: Its value is “did not induce detectable responses”.

Q: What about the “shape of concentration response curve” value (A. mellifera α5 nAChR) of the same molecule?
A: The value was “biphasic concentration response curve”.

Q: What about the Emax (A. mellifera α5 nAChR; [3]) of the same molecule?
A: Its Emax is 100%.

Q: And the EC50 [1]?
A: The EC50 was 8.8 µM.

Q: What does the source list for `C[N+](C)(C)CCO` [Choline]?
A: Hill coefficient (A. mellifera α5 nAChR): 2.043 (0.9065–3.180); EC50 (A. mellifera α5 nAChR; EC50): 9070 µM; Emax (A. mellifera α5 nAChR; [3]): 100%

Q: With `NCCc1ccc(O)c(O)c1` [Dopamine, dopamine] as the molecule, how does the “response of water-injected oocytes” value [2] read?
A: The value was “no detectable response; also recorded: no responses were detected”.

Q: What about the Hill coefficient (A. mellifera α5 nAChR) of the same molecule?
A: Its Hill coefficient is 2.220 (1.585–2.855).

Q: And the “effect of absence of Na+ on agonist response” value (A. mellifera α5 nAChR)?
A: Its value is “eliminated the response”.

Q: And the response on co-application (A. mellifera α5 nAChR)?
A: The response on co-application was “synergistic agonism”.

Q: And the “response when applied alone” value (A. mellifera α5 nAChR)?
A: Its value is “did not induce detectable responses”.

Q: For `NCCCC(=O)O` [GABA, γ-aminobutyric acid], which agonist response (A. mellifera α5 nAChR; [4]) is on record?
A: Its agonist response is “none of them were able to induce detectable responses; also recorded: no agonist actions”.

Q: For `NCCc1c[nH]cn1` [Histamine, histamine], which Hill coefficient (A. mellifera α5 nAChR) is on record?
A: Its Hill coefficient is 2.500 (1.050–3.950).

Q: What about the “type of agonist action relative to ACh” value (A. mellifera α5 nAChR) of the same molecule?
A: Its value is “partial agonist”.

Q: And the EC50 (A. mellifera α5 nAChR; [5])?
A: The EC50 was 3360 µM.

Q: What about the Emax at 5000 µM (A. mellifera α5 nAChR; [3]) of the same molecule?
A: The Emax at 5000 µM was 45.3%.

Q: What does the source list for `NCC(O)c1ccc(O)cc1` (stereo not shown) [Octopamine, octopamine]?
A: response of water-injected oocytes [2]: no tyramine and octopamine responses; Hill coefficient (A. mellifera α5 nAChR; [6]): 3.727 (2.998–4.455); EC50 (A. mellifera α5 nAChR; [5]): 378 µM; normalised current response (Fig. 1c source data) (A. mellifera α5 nAChR; log[Agonist] M -2.22185, listed as OA): 1.1 and 0.809; normalised current response (Fig. 1c source data) (A. mellifera α5 nAChR; log[Agonist] M -2.52288, listed as OA): 0.943 and 1.14 and 0.971 and 0.986 and 0.935 and 1.1; normalised current response (Fig. 1c source data) (A. mellifera α5 nAChR; log[Agonist] M -3): 1; normalised current response (Fig. 1c source data) (A. mellifera α5 nAChR; log[Agonist] M -3.22185, listed as OA): 0.892 and 0.674 and 0.971 and 0.901 and 1.01 and 0.859; normalised current response (Fig. 1c source data) (A. mellifera α5 nAChR; log[Agonist] M -3.30103, listed as OA): 0.827 and 0.623; normalised current response (Fig. 1c source data) (A. mellifera α5 nAChR; log[Agonist] M -3.52288, listed as OA): 0.284 and 0.276 and 0.462 and 0.451 and 0.389 and 0.232; normalised current response (Fig. 1c source data) (A. mellifera α5 nAChR; log[Agonist] M -5): 0; Emax at 1000 µM (A. mellifera α5 nAChR; [3]): 899%; type of agonist action relative to ACh (A. mellifera α5 nAChR; wild-type): superagonists

Q: With `NCCc1c[nH]c2ccc(O)cc12` [Serotonin] as the molecule, how does the Hill coefficient (A. mellifera α5 nAChR; [6]) read?
A: Its Hill coefficient is 3.419 (2.503–4.335).

Q: What about the Emax (A. mellifera α5 nAChR; [3]) of the same molecule?
A: The Emax was 238%.

Q: Which “response of water-injected oocytes” value [2] does the source give for `NCCc1ccc(O)cc1` [Tyramine, tyramine] here?
A: Its value is “no tyramine and octopamine responses”.

Q: What about the Hill coefficient (A. mellifera α5 nAChR; [6]) of the same molecule?
A: The Hill coefficient was 1.918 (1.355–2.481).

Q: And the EC50 (A. mellifera α5 nAChR; [5])?
A: The EC50 was 91.1 µM.

Q: And the “normalised current response (Fig. 1c source data)” value (“normalised current response” for short) (A. mellifera α5 nAChR; log[Agonist] M -3)?
A: Its value is 1.

Q: What about the “normalised current response” value (A. mellifera α5 nAChR; log[Agonist] M -4, listed as TA) of the same molecule?
A: The value was 0.538 and 0.456 and 0.597 and 0.416 and 0.62.

Q: And the “normalised current response” value (A. mellifera α5 nAChR; log[Agonist] M -5)?
A: Its value is 0.

Q: And the Emax at 1000 µM (A. mellifera α5 nAChR; [3])?
A: The Emax at 1000 µM was 770%.

Q: And the “type of agonist action relative to ACh” value (A. mellifera α5 nAChR; wild-type)?
A: The value was “superagonists”.

Q: Which antagonist action (A. mellifera α5 nAChR; 10 µM coapplied with 400 µM octopamine) does the source give for `Cc1ccc(/N=C/N(C)/C=N/c2ccc(C)cc2C)c(C)c1` [amitraz] here?
A: The antagonist action was “no antagonist actions; also recorded: nor antagonistic actions”.

Q: What about the agonist action (A. mellifera α5 nAChR; 10 µM, applied 3 min after 5 mM ACh) of the same molecule?
A: Its agonist action is “no agonist actions; also recorded: did not show any agonist actions”.

Q: Which agonist response (A. mellifera α5 nAChR; [4]) does the source give for `N[C@@H](CCC(=O)O)C(=O)O` [glutamate] here?
A: Its agonist response is “none of them were able to induce detectable responses; also recorded: no agonist actions”.

Q: With `NCC(=O)O` [glycine] as the molecule, how does the agonist response (A. mellifera α5 nAChR; [4]) read?
A: The agonist response was “none of them were able to induce detectable responses; also recorded: no agonist actions”.

Q: With `COc1cc(CCO)ccc1O` [homovanillyl alcohol] as the molecule, how does the agonist response (A. mellifera α5 nAChR; 100 μM or 1 mM) read?
A: The agonist response was “did not elicit a response; also recorded: no agonist actions”.

Q: Which “antagonist action on ACh response” value (A. mellifera α5 nAChR) does the source give for α-bungarotoxin here?
A: Its value is “antagonistic actions”.

Q: What about the “washing time after which response to 2 mM ACh was restored” value (A. mellifera α5 nAChR) of the same molecule?
A: Its value is 26 min.
